From patent US12441736B2, “KIF18A inhibitors” (AMGEN INC., priority 2018, dated 2025)

biological target: T1, Recombinant human KIF18A (1-467 His-tagged) protein (Homo sapiens, UniProt Q8NI77); assay: KIF18A Enzyme Assay: microtubule-stimulated ATPase activity (ADP-Glo); type: biochemical; conditions: 30 nM KIF18A, 30 μg/mL pig microtubules, 75 μM ATP, ADP-Glo luminescence
T1 construct: Recombinant human KIF18A (1-467 His-tagged) protein; His; made in house
Procedure, shortened: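 His-tagged human KIF18A (1-467, baculovirus), 30 nM, pre-incubated 15 min with compound in Tris pH 7.5 containing 30 μg/mL taxol-stabilised pig microtubules. ATP was then added at Km (75 μM) for 15 min at room temperature. ADP was measured by ADP-Glo luminescence, and IC50 was fitted by 4-parameter logistic over 22 points.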

T1 sequence (Q8NI77 1-467): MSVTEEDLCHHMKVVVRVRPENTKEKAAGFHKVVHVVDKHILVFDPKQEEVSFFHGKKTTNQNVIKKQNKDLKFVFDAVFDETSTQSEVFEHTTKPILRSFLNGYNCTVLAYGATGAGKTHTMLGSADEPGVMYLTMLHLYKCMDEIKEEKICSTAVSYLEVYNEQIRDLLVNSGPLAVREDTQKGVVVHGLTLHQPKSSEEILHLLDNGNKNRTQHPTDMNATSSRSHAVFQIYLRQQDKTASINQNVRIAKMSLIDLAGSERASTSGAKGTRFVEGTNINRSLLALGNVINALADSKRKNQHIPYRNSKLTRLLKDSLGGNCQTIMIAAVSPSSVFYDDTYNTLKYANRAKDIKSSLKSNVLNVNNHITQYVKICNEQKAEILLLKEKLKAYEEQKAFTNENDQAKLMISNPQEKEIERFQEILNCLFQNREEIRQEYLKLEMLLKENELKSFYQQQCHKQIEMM
T1 sequence (P02550 whole entry partner): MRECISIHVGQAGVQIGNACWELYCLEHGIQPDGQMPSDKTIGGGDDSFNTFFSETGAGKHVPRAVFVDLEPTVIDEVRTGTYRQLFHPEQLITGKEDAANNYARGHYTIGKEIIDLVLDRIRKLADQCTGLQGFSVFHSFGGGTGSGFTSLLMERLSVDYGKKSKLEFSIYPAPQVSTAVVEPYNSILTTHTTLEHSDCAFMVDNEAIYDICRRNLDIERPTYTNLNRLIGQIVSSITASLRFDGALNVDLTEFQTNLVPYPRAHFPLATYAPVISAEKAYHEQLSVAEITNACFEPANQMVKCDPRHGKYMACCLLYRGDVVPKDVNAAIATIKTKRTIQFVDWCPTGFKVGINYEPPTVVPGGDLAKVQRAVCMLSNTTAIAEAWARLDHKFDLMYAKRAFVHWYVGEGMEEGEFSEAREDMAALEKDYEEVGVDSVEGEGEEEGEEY
T1 sequence (P02554 whole entry partner): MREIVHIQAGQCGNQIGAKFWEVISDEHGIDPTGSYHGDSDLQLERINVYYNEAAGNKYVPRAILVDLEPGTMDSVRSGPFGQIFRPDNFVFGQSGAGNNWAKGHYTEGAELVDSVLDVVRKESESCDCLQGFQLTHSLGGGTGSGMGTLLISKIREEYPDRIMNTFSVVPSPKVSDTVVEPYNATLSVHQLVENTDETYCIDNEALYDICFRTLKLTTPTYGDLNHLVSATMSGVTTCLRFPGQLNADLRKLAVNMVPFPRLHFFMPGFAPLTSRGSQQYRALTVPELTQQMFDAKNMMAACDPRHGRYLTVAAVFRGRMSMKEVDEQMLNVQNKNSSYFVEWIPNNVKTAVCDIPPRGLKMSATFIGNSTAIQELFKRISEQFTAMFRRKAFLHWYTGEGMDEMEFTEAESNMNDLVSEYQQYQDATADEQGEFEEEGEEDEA

SMILES	IC50
CC(CO)(CO)Nc1ccc(C(=O)Nc2cccc(N3CCOCC3)n2)c(N2CCC3(CC2)CC3)n1 [Example 148, 2-(6-azaspiro[2.5]oct-6-yl)-6-((1,3-dihydroxy-2-methyl-2-propanyl)amino)-N-(6-(4-morpholinyl)-2-pyridinyl)-3-pyridinecarboxamide]	60.4 nM
CC(CO)(CO)Nc1ccc(C(=O)Nc2cccc(N3CCC(F)(F)C3)n2)c(N2CCC3(CC2)CC3)n1 [Example 149, 2-(6-azaspiro[2.5]oct-6-yl)-N-(6-(3,3-difluoro-1-pyrrolidinyl)-2-pyridinyl)-6-((1,3-dihydroxy-2-methyl-2-propanyl)amino)-3-pyridinecarboxamide]	59.1 nM
CC(C)(CO)Nc1ccc(C(=O)Nc2cc(Cl)cc(N3CCOCC3)n2)c(N2CCC3(CC2)CC3)n1 [Example 152, 2-(6-azaspiro[2.5]oct-6-yl)-N-(4-chloro-6-(4-morpholinyl)-2-pyridinyl)-6-((1-hydroxy-2-methyl-2-propanyl)amino)-3-pyridinecarboxamide]	74.3 nM
Cc1cc(NC(=O)c2ccc(NC(C)(C)CO)nc2N2CCC3(CC2)CC3)nc(N2CCOCC2)c1 [Example 155, 2-(6-azaspiro[2.5]octan-6-yl)-6-((1-hydroxy-2-methyl-2-propanyl)amino)-N-(4-methyl-6-(4-morpholinyl)-2-pyridinyl)-3-pyridinecarboxamide]	71 nM
CC(C)(CO)Nc1ccc(C(=O)Nc2cc(C#N)cc(N3CCOCC3)n2)c(N2CCC3(CC2)CC3)n1 [Example 156, 2-(6-azaspiro[2.5]octan-6-yl)-N-(4-cyano-6-(4-morpholinyl)-2-pyridinyl)-6-((1-hydroxy-2-methyl-2-propanyl)amino)-3-pyridinecarboxamide]	116 nM
Cc1cc(NC(=O)c2ccc(NC(C)(C)CO)nc2N2CCC3(CC2)CC3)nc(S(=O)(=O)NC(C)(C)C)c1 [Example 157, 2-(6-azaspiro[2.5]octan-6-yl)-6-((1-hydroxy-2-methyl-2-propanyl)amino)-N-(4-methyl-6-((2-methyl-2-propanyl)sulfamoyl)-2-pyridinyl)-3-pyridinecarboxamide]	206 nM

Second part, the molecule after the results:

IC50	SMILES
402 nM	COc1cc(NC(=O)c2ccc(NC(C)(C)CO)nc2N2CCC3(CC2)CC3)nc(N2CCOCC2)c1 [Example 158, 2-(6-azaspiro[2.5]octan-6-yl)-6-((1-hydroxy-2-methyl-2-propanyl)amino)-N-(4-methoxy-6-(4-morpholinyl)-2-pyridinyl)-3-pyridinecarboxamide]
169 nM	CC1(O)CN(c2ccc(C(=O)Nc3cccc(S(=O)(=O)NC(C)(C)C)n3)c(N3CCC4(CC3)CC4)n2)C1 [Example 159, 2-(6-azaspiro[2.5]octan-6-yl)-6-(3-hydroxy-3-methyl-1-azetidinyl)-N-(6-((2-methyl-2-propanyl)sulfamoyl)-2-pyridinyl)-3-pyridinecarboxamide]
278 nM	CC(C)(CO)Nc1ccc(C(=O)Nc2cc(C3CC3)cc(N3CCOCC3)n2)c(N2CCC3(CC2)CC3)n1 [Example 160, 2-(6-azaspiro[2.5]octan-6-yl)-N-(4-cyclopropyl-6-(4-morpholinyl)-2-pyridinyl)-6-((1-hydroxy-2-methyl-2-propanyl)amino)-3-pyridinecarboxamide]
2190 nM	CC1(C)COC(=O)N1c1cccc(NC(=O)c2ccc(N3C(=O)OCC3(C)C)nc2N2CCC3(CC2)CC3)n1 [Example 161, 2-(6-azaspiro[2.5]octan-6-yl)-6-(4,4-dimethyl-2-oxo-1,3-oxazolidin-3-yl)-N-(6-(4,4-dimethyl-2-oxo-1,3-oxazolidin-3-yl)-2-pyridinyl)-3-pyridinecarboxamide]
70.7 nM	CC(C)(CO)Nc1cccc(NC(=O)c2ccc(NC(C)(C)CO)nc2N2CCC3(CC2)CC3)n1 [Example 162, 2-(6-azaspiro[2.5]octan-6-yl)-6-((1-hydroxy-2-methyl-2-propanyl)amino)-N-(6-((1-hydroxy-2-methyl-2-propanyl)amino)-2-pyridinyl)-3-pyridinecarboxamide]
